Where two headings read alike, the source gives them in different places.
Columns and labels:
[1] = HPLC determination of partition coefficients in acetonitrile phase systems
Method: In these tests, known organic flavor volatile compounds were added to 2 ml aliquots of 50:50 acetonitrile:water, 22° C., in 4 ml HPLC vials, mixed thoroughly and capped with polytetrafluoroethylene septum caps. […] The samples were injected (20 uL) into a continuous HPLC apparatus. […] The HPLC apparatus was a Waters WISP model 710B sample injector, 6000A pump, and 481 UV detector set at 210 nm (Waters Associates, Milford, MA). A Radiomatic Flo-One Beta unit was used for peak integration (Radiomatic Instruments, Inc., Tampa FL). An Alltech adsorbosphere C18 column, 5 micron, 250 mm×4.6 mm was used (Alltech Associates, Deerfield, IL) to achieve component separation in accordance with conventional HPLC processing. The mobile phase had the following composition: 45% acetonitrile, 55% water, 0.2% KH2 PO4, pH 3.0. The flow rate was 1.0 ml/minute. The vials were then placed in a freezer (-20° C.) for one hour. 250 uL of the resulting organic and aqueous phases were then placed in a limited volume insert vial, the sample injected and peak integrations acquired. The partition coefficient, P, was calculated by dividing the organic phase by the aqueous phase integration values.
To determine the time period appropriate for complete partitioning, four sulfur volatiles and 1-methionine were treated as above, except that samples were taken at different times up to 60 minutes FIGS. 2a, 2b and 3).

[2] = Binary acetonitrile/water cold phase extraction of caffeine from cola beverage; type: physicochemical; conditions: cola plus acetonitrile, -20° C. for 1 hour
Method: […]. The sample was shaken for 20 seconds and was chilled to -20° C. for 1 hour. 0.3 ml of the organic layer was then placed in an HPLC sampling vial. The HPLC system used was: a phenyl reversed phase column (Alltech Associates, Deerfield, Ill.) 250×4.6 mm, 5 micron. 25% acetonitrile, 75% water 0.2% w/v KH2 PO4, pH 3.0 mobile phase, 1.5 ml/min. flow rate 20 uL injection by the autosampler. UV detection at 210 nm.

[3] = Acetonitrile/water 1:1, 1 hr. at -20° C., organic phase divided by aqueous phase integration values
[4] = Acetonitrile/water/chloroform 5:5:1, 22° C., organic phase divided by aqueous phase integration values

Partition Coefficient Ternary [1] | Partition Coefficient Binary ([1]; 60 min) | SMILES | Partition Coefficient Binary [1, 3] | Partition Coefficient Ternary [1, 4] | extraction into the organic phase [2]
 |  | N[C@@H](Cc1ccccc1)C(=O)O [1-phenylalanine] | 0.1 | 0.3 | 
 |  | CSCC[C@H](N)C(=O)O [1-methionine] | 0.03 | 0.2 | 
0.2 | 0.2 | O=C1O[C@H]([C@@H](O)CO)[C@@H](O)[C@@H]1O [1-galactono-1,4-lactone] |  |  | 
 |  | CCCCCCCC(=O)O [Caprylic acid] | 20.8 | 20.6 | 
6.6 | 5.2 | CSC [Dimethyl sulfide] |  |  | 
17.6 | 14.3 | CCCC(=O)OCC [Ethyl Butyrate] |  |  | 
 |  | Cn1c(=O)c2c(ncn2C)n(C)c1=O [Caffeine] |  |  | selectively extracted into the organic phase
 |  | S [Hydrogen sulfide] | 4.6 | 5.2 | 
2.3 | 3.3 | OCCc1ccccc1 [2-phenyl ethanol] |  |  | 
 |  | CCCCC(=O)OCC [Ethyl Valerate] | 25.9 | 25.6 | 

— patent US4865991A, “Methods for partitioning of organic flavor compounds” (priority 1987, dated 1989)
